Results taken from ChEMBL document CHEMBL5113392, “Novel hybrid pyrrolidinedione-thiazolidinones as potential anticancer agents: Synthesis and biological evaluation” (Eur J Med Chem, 2022).
Active and inactive are the calls of the source. No cut-off for these calls is given here.

Legend:
[1] = tested on: Jurkat; assay: Induction of apoptosis in human Jurkat cells assessed as increase in cleaved capase-3 level at 0.5 uM for 24 hrs by Western blot analysis; format: functional, cell-based
[2] = Cytotoxicity against mitogen activated human peripheral blood lymphocytes assessed as cell growth inhibition incubated for 48 hrs by MTT assay; format: toxicity, cell-based, Lymphocyte
[3] = tested on: A549; assay: Anticancer activity against human A549 cells assessed as cell growth inhibition incubated for 72 hrs by MTT assay; format: functional
[4] = tested on: KB 3-1; assay: Anticancer activity against human KB 3-1 cells assessed as cell growth inhibition incubated for 72 hrs by MTT assay; format: functional
[5] = Cytotoxicity against mitogen activated human peripheral blood lymphocytes assessed as cell growth inhibition incubated for 24 hrs by MTT assay; format: toxicity, cell-based, Lymphocyte
[6] = tested on: HCT-116; assay: Induction of DNA damage in human HCT-116 cell lysate assessed as olive tail moment at 0.5 uM incubated for 2 hrs in dark by Comet assay; format: functional
[7] = Anticancer activity against human HCT116-p53-null cells assessed as cell growth inhibition incubated for 72 hrs by MTT assay; format: functional
[8] = tested on: U-251; assay: Anticancer activity against human U-251 cells assessed as cell growth inhibition incubated for 72 hrs by MTT assay; format: functional
[9] = tested on: HCT-116; assay: Induction of DNA damage in human HCT-116 cell lysate assessed as tail DNA at 0.5 uM incubated for 2 hrs in dark by Comet assay; format: functional
[10] = tested on: Jurkat; assay: Induction of DNA damage in human Jurkat cells assessed as olive tail moment at 0.5 uM incubated for 24 hrs by alkaline Comet assay; format: functional
[11] = tested on: Lymphocyte; assay: Induction of DNA damage in mitogen activated human peripheral blood lymphocytes assessed as olive tail moment at 0.5 uM incubated for 24 hrs by alkaline Comet assay; format: toxicity, cell-based
[12] = tested on: Jurkat; assay: Induction of morphological changes in human Jurkat cells assessed as plasma membrane blebbing incubated for 24 hrs by Hoechst 33258 and propidium iodide staining based fluorescence microscopy; format: functional, cell-based
[13] = tested on: Jurkat; assay: Induction of morphological changes in human Jurkat cells assessed as chromatin condensation incubated for 24 hrs by Hoechst 33258 and propidium iodide staining based fluorescence microscopy; format: functional, cell-based
[14] = Cytotoxicity against human HaCaT cells assessed as cell growth inhibition incubated for 72 hrs by MTT assay; format: toxicity, cell-based
[15] = tested on: Salmon testes DNA; assay: Displacement of methyl green from salmon sperm DNA at 10 uM measured after 2 hrs by fluorescence plate reader method relative to control; format: nucleic-acid assay; settings: Salmo salar
[16] = tested on: HCT-116; assay: Anticancer activity against human HCT-116 cells assessed as cell growth inhibition incubated for 72 hrs by MTT assay; format: functional
[17] = tested on: HeLa; assay: Anticancer activity against human HeLa cells assessed as cell growth inhibition incubated for 72 hrs by MTT assay; format: functional
[18] = tested on: HCT-116; assay: Induction of DNA damage in human HCT-116 cells assessed as olive tail moment at 0.5 uM incubated for 2 hrs by alkaline Comet assay; format: functional
[19] = tested on: Jurkat; assay: Anticancer activity against human Jurkat cells assessed as cell growth inhibition incubated for 72 hrs by MTT assay; format: functional
[20] = tested on: MDA-MB-231; assay: Anticancer activity against human MDA-MB-231 cells assessed as cell growth inhibition incubated for 72 hrs by MTT assay; format: functional
[21] = tested on: Jurkat; assay: Induction of apoptosis in human Jurkat cells assessed as decrease in Bcl-2 level at 0.5 uM for 24 hrs by Western blot analysis; format: functional, cell-based
[22] = tested on: SK-OV-3; assay: Anticancer activity against human SK-OV-3 cells assessed as cell growth inhibition incubated for 72 hrs by MTT assay; format: functional
[23] = tested on: Jurkat; assay: Induction of apoptosis in human Jurkat cells assessed as increase in Bax level at 0.5 uM for 24 hrs by Western blot analysis; format: functional, cell-based
[24] = tested on: Lymphocyte; assay: Induction of DNA damage in mitogen activated human peripheral blood lymphocytes assessed as tail DNA at 0.5 uM incubated for 24 hrs by alkaline Comet assay; format: toxicity, cell-based
[25] = tested on: Salmon testes DNA; assay: Binding affinity to double stranded salmon sperm DNA assessed as increase in DNA oxidation level by measuring net change in absorbance at 10 uM incubated for 1 hr by UV based spectroscopic method; format: nucleic-acid assay; settings: Salmo salar
[26] = tested on: HCT-116; assay: Induction of DNA damage in human HCT-116 cells assessed as tail DNA at 0.5 uM incubated for 2 hrs by alkaline Comet assay; format: functional
[27] = tested on: Jurkat; assay: Induction of apoptosis in human Jurkat cells assessed as decrease in Endo-G protein level at 0.5 uM for 24 hrs by Western blot analysis; format: functional, cell-based
[28] = tested on: Jurkat; assay: Induction of morphological changes in human Jurkat cells assessed as chromatin fragmentation incubated for 24 hrs by Hoechst 33258 and propidium iodide staining based fluorescence microscopy; format: functional, cell-based
[29] = tested on: Jurkat; assay: Induction of DNA damage in human Jurkat cells assessed as tail DNA at 0.5 uM incubated for 24 hrs by alkaline Comet assay; format: functional
[30] = tested on: Jurkat; assay: Induction of morphological changes in human Jurkat cells assessed as change in cell shape incubated for 24 hrs by Hoechst 33258 and propidium iodide staining based fluorescence microscopy; format: functional
[31] = tested on: Jurkat; assay: Induction of morphological changes in human Jurkat cells assessed as chromatin topology incubated for 24 hrs by Hoechst 33258 and propidium iodide staining based fluorescence microscopy; format: functional, cell-based
[32] = tested on: MCF7; assay: Anticancer activity against human MCF7 cells assessed as cell growth inhibition incubated for 72 hrs by MTT assay; format: functional

COc1cccc2c1C(=O)c1c(O)c3c(c(O)c1C2=O)C[C@@](O)(C(=O)CO)C[C@@H]3O[C@H]1C[C@H](N)[C@H](O)[C@H](C)O1 [DOXORUBICIN]
Activity [1]: Active
GI50 at 48 h [2]: 500 nM
GI50 [3]: 970 nM
GI50 [4]: 980 nM
GI50 at 24 h [5]: 2900 nM
Activity [6]: 1.95%
GI50 [7]: 2800 nM
GI50 [8]: 890 nM
Activity [9]: 12.6%
Activity [10]: 12.23%
Activity [11]: 8.12%
Activity [12]: Active
Activity [13]: Active
GI50 at 72 h [14]: 640 nM
Activity [15]: 68.7%
GI50 [16]: 570 nM
GI50 [17]: 700 nM
Activity [18]: 1%
GI50 [19]: 430 nM
GI50 [20]: 5950 nM
Activity [21]: Active
GI50 [22]: 9100 nM
Activity [23]: Active
Activity [24]: 25.9%
Activity [25]: Active
Activity [26]: 18%
Activity [27]: Active
Activity [28]: Active
Activity [29]: 40.9%
Activity [30]: Active
Activity [31]: Active
GI50 [32]: 750 nM
